Source: paper PMC11242173 (International Journal of Molecular Sciences, 2024)
≈ marks a conversion by molar mass, not a printed value.

Legend:
[1] = test system: hCoV-OC43; test: Focus forming reduction assay (FFRA), hCoV-OC43 in HCT-8 cells; settings: for EC50 / EC90: hCoV-OC43, FFRA in HCT-8 cells, treatment before, during and after infection, 72 h p.i.; for SI (ratio of CC50 to EC50): hCoV-OC43, HCT-8 cells
[2] = test system: HCT-8 cells; test: Cytotoxicity (cell viability) assay in HCT-8 cells; assay type: cell-based, human; settings: uninfected HCT-8 cells, 72 h
Protocol: HCT-8, MRC5, A549, and Calu-3 cells seeded on 96-well plates 24 h before the assay were exposed to increasing concentrations of compounds or the vehicle as a control. Cytotoxicity was evaluated after 48 h for MRC5 and Calu-3 cells or after 72 h for A549 and HCT-8 cells, using the CellTiter-Glo assay (Promega, Milan, Italy) or the ATPlite assay (PerkinElmer, Milan, Italy). The cytotoxicity of the tested compounds was expressed as cytotoxic concentration (CC50).

| SMILES | EC50 [1] | EC90 [1] | SI (ratio of CC50 to EC50) [1] | CC50 [2] |
| --- | --- | --- | --- | --- |
| Oc1cc(O)c2c(c1)O[C@@]1(c3ccc(O)c(O)c3)Oc3cc(O)c4c(c3[C@@H]2[C@H]1O)O[C@H](c1ccc(O)c(O)c1)[C@H](O)C4 [PAC A2, PAC-A2] | 6.58 ± 0.40 µg/mL (≈ 11.4 µM) | 100.74 ± 0.66 µg/mL (≈ 175 µM) | >60.79 | >400 µg/mL |
| Oc1cc(O)c2c(c1)OC1(c3ccc(O)c(O)c3)Oc3cc(O)c4c(c3C2C1O)OC(c1ccc(O)c(O)c1)C(O)C4 (centres unmarked) [PAC A1, PAC-A1] | 4.10 ± 0.71 µg/mL (≈ 7.11 µM) | 139.35 ± 2.06 µg/mL (≈ 242 µM) | >97.56 | >400 µg/mL |
| Oc1cc(O)c2c(c1)O[C@H](c1ccc(O)c(O)c1)[C@@H](O)[C@@H]2c1c(O)cc(O)c2c1O[C@H](c1ccc(O)c(O)c1)[C@@H](O)C2 [PAC B3, PAC-B3] | 134.92 ± 4.14 µg/mL (≈ 233 µM) | >400 µg/mL | >2.96 | >400 µg/mL |
| Oc1cc(O)c2c(c1)O[C@H](c1ccc(O)c(O)c1)[C@H](O)[C@H]2c1c(O)cc(O)c2c1O[C@H](c1ccc(O)c(O)c1)[C@H](O)C2 [PAC B2, PAC-B2] | 142.41 ± 8.93 µg/mL (≈ 246 µM) | >400 µg/mL | >2.81 | >400 µg/mL |
| Oc1cc(O)c2c(c1)O[C@H](c1ccc(O)c(O)c1)[C@H](O)[C@H]2c1c(O)cc(O)c2c1O[C@H](c1ccc(O)c(O)c1)[C@@H](O)C2 [PAC B1, PAC-B1] | 167.02 ± 6.51 µg/mL (≈ 289 µM) | >400 µg/mL | >2.39 | >400 µg/mL |
